One test concerns the target T1, BTK (Homo sapiens, UniProt Q06187).
T1 construct: High control=Cell group with added DMSO and without compound, indicating microplate readings without BTK degradation; endogenous in cells; host or cells: TMD-8
The test can be described thus: BTK degradation in TMD-8 cells (HTRF assay). The format is cell-based. The settings on record: 6 h treatment, IC50 (DC50) of BTK degradation. In outline:
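TMD-8 cells were exposed for 6 h to 8 compound doses (6-fold serial dilution, 0.2% DMSO). Lysed cells were incubated overnight at room temperature with HTRF antibodies and read at 665/620 nm. DC50 came from four-parameter fitting of % inhibition versus concentration.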
A general note: TR-FRET usually uses a lanthanide donor and a delayed reading to cut background.

In the next test the test system is HEK-293 cells. The test can be described thus: HEK-293 cytotoxicity detection (CellTiter-Glo). The format is cell-based. The settings on record: Homo sapiens. In outline: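 HEK-293 cells exposed 72 h to an 8-point, 4-fold dilution series (top 500× stock 5 mM in DMSO; 0.2% DMSO final). Viability by CellTiter-Glo luminescence after 10 min at room temperature; IC50 from four-parameter Hill fit of percent inhibition.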
For orientation: ATP-based viability assays read luminescence as a measure of living cells.

Where [1] appears, read: HEK-293 cells, 72 h incubation, CellTiter-Glo luminescence, IC50 of cell proliferation inhibition, read-out: HEK293.

Structures are written as SMILES. Where two headings read alike, the source gives them in different places.

Broadly, the DC50 is the midpoint of the concentration-degradation curve. A lower DC50 goes with a more potent degrader.

T1 sequence (Q06187 whole entry): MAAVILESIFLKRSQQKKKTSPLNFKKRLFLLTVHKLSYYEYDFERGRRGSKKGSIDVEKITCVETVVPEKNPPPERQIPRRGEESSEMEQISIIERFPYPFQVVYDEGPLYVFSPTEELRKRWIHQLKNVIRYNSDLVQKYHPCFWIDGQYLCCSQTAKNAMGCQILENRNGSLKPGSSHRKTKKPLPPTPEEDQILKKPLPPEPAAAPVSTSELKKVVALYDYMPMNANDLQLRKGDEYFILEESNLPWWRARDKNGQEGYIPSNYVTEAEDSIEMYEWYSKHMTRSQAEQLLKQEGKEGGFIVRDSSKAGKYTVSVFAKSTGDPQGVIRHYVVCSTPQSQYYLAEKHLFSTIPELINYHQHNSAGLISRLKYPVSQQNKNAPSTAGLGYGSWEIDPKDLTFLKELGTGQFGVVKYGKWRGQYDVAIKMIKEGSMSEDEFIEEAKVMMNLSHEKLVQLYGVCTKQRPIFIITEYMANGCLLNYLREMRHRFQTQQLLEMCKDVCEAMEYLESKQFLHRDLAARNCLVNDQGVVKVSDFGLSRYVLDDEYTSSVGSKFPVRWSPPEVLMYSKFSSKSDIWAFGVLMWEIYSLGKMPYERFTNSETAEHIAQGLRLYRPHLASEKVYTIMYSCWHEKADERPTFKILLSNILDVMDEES

At BTK, `Cc1cc(-c2ncnc3[nH]c4cc(N5CCN(C6CC(c7ccc([C@@H]8CCC(=O)NC8=O)cc7)C6)CC5)ccc4c23)ccc1[C@@H](C)NC(=O)c1nc(C2(C)CC2)no1` (stereo partly drawn) [Example 67, N—((R)-1-(4-(7-(4-(3-(4-((S)-2,6-dioxopiperidin-3-yl)phenyl)cyclobutyl)piperazin-1-yl)-9H-pyrimido[4,5-b]indol-4-yl)-2-methylphenyl)ethyl)-3-(1-methylcyclopropyl)-1,2,4-oxadiazole-5-carboxamide] registered a half-maximal degradation concentration (DC50) of 1.27 nM. Also, the IC50 in the test with HEK-293 cells (setting [1]) was over 10000 nM.

In the case of `C[C@@H](NC(=O)c1nc(C(C)(C)C)no1)C1CCN(c2ncnc3[nH]c4cc(N5CCN(CC6CCN(c7ccc(N8CCC(=O)NC8=O)cc7)CC6)CC5)ccc4c23)CC1` [Example 130, (R)-3-(tert-butyl)-N-(1-(1-(7-(4-((1-(4-(2,4-dioxotetrahydropyrimidin-1(2H)-yl)phenyl)piperidin-4-yl)methyl)piperazin-1-yl)-9H-pyrimido[4,5-b]indol-4-yl)piperidin-4-yl)ethyl)-1,2,4-oxadiazole-5-carboxamide], on BTK, the DC50 was determined as 63.2 nM. Also, the IC50 with HEK-293 cells (setting [1]) was over 10000 nM.

With `Cc1cc(-c2ncnc3[nH]c4cc(N5CCN([C@H]6C[C@@H](c7ccc(N[C@H]8CCC(=O)NC8=O)cc7)C6)CC5)ccc4c23)ccc1[C@@H](C)NC(=O)c1nc(C2(C)CC2)no1` [Example 120, N—((R)-1-(4-(7-(4-((1R,3s)-3-(4-(((S)-2,6-dioxopiperidin-3-yl)amino)phenyl)cyclobutyl)piperazin-1-yl)-9H-pyrimido[4,5-b]indol-4-yl)-2-methylphenyl)ethyl)-3-(1-methylcyclopropyl)-1,2,4-oxadiazole-5-carboxamide], it took 1.25 nM to reach half-maximal degradation at BTK (DC50). The IC50 with HEK-293 cells (setting [1]) was over 10000 nM.

For `Cc1c([C@@H](C)NC(=O)c2nc(C3(C)CC3)no2)ccc(-c2ncnc3[nH]c4cc(N5CCN(C6CC(c7ccc([C@H]8CCC(=O)NC8=O)cc7)C6)CC5)ccc4c23)c1F` (stereo partly drawn) [Example 66, N—((R)-1-(4-(7-(4-(3-(4-((R)-2,6-dioxopiperidin-3-yl)phenyl)cyclobutyl)piperazin-1-yl)-9H-pyrimido[4,5-b]indol-4-yl)-3-fluoro-2-methylphenyl)ethyl)-3-(1-methylcyclopropyl)-1,2,4-oxadiazole-5-carboxamide], half-maximal degradation on BTK (DC50) was put at 4.1 nM. Moreover, in the test on HEK-293 cells (setting [1]), the IC50 is over 10000 nM.

As for `Cc1cc(-c2ncnc3[nH]c4cc(C5CCN(C6CC(c7ccc([C@@H]8CCC(=O)NC8=O)cc7)C6)C5)ccc4c23)ccc1[C@@H](C)NC(=O)c1nc(C(C)(C)C)no1` (stereo partly drawn) [Example 21, 3-(tert-butyl)-N-((1R)-1-(4-(7-(1-(3-(4-((S)-2,6-dioxopiperidin-3-yl)phenyl)cyclobutyl)pyrrolidin-3-yl)-9H-pyrimido[4,5-b]indol-4-yl)-2-methylphenyl)ethyl)-1,2,4-oxadiazole-5-carboxamide], at BTK, the half-maximal degradation concentration (DC50) came out at 0.609 nM. The IC50 in the test with HEK-293 cells (setting [1]) came to 3600 nM.

Compound `COc1cc2c(cc1N1CCN(Cc3ccc4c(c3)C3(CC3)C(=O)N4C3CCC(=O)NC3=O)CC1)[nH]c1ncnc(-c3ccc([C@@H](C)NC(=O)c4nc(C(C)(C)C)no4)c(C)c3)c12` (stereo partly drawn) [Example 76, 3-(tert-butyl)-N-((1R)-1-(4-(7-(4-((1′-(2,6-dioxopiperidin-3-yl)-2′-oxospiro[cyclopropane-1,3′-indolin]-5′-yl)methyl)piperazin-1-yl)-6-methoxy-9H-pyrimido[4,5-b]indol-4-yl)-2-methylphenyl)ethyl)-1,2,4-oxadiazole-5-carboxamide] had a DC50 on BTK of 1.6 nM. Moreover, the IC50 in the test on HEK-293 cells (setting [1]) was over 10000 nM.

In the case of `Cc1cc(-c2ncnc3[nH]c4cc(N5CCN(CCc6ccc(C7CCC(=O)NC7=O)c(C)n6)CC5)ccc4c23)ccc1[C@@H](C)NC(=O)c1nc(C(C)(C)C)no1` (stereo partly drawn) [Example 16, 3-(tert-butyl)-N-((1R)-1-(4-(7-(4-(2-(5-(2,6-dioxopiperidin-3-yl)-6-methylpyridin-2-yl)ethyl)piperazin-1-yl)-9H-pyrimido[4,5-b]indol-4-yl)-2-methylphenyl)ethyl)-1,2,4-oxadiazole-5-carboxamide], the DC50 at BTK came to 0.347 nM. Also, the IC50 in the test on HEK-293 cells (setting [1]) was over 10000 nM.

In turn, `COc1cc2c(cc1N1CCN(C3CCN(c4cccc(C5CCC(=O)NC5=O)c4)C3)CC1)[nH]c1ncnc(-c3ccc([C@@H](C)NC(=O)c4nc(C(C)(C)C)no4)c(C)c3)c12` (stereo partly drawn) [Example 51, 3-(tert-butyl)-N-((1R)-1-(4-(7-(4-(1-(3-(2,6-dioxopiperidin-3-yl)phenyl)pyrrolidin-3-yl)piperazin-1-yl)-6-methoxy-9H-pyrimido[4,5-b]indol-4-yl)-2-methylphenyl)ethyl)-1,2,4-oxadiazole-5-carboxamide] displayed a DC50 on BTK of 0.987 nM. Moreover, the IC50 with HEK-293 cells (setting [1]) was over 10000 nM.

`Cc1cc(-c2ncnc3[nH]c4cc(N5CCN(CCc6ccc7c(c6)C6(CC6)C(=O)N7C6CCC(=O)NC6=O)CC5)ccc4c23)ccc1[C@@H](C)NC(=O)c1nc(C2(C)CC2)no1` (stereo partly drawn) [Example 123, N-((1R)-1-(4-(7-(4-(2-(1′-(2,6-dioxopiperidin-3-yl)-2′-oxospiro[cyclopropane-1,3′-indolin]-5′-yl)ethyl)piperazin-1-yl)-9H-pyrimido[4,5-b]indol-4-yl)-2-methylphenyl)ethyl)-3-(1-methylcyclopropyl)-1,2,4-oxadiazole-5-carboxamide] returned a 50% degradation concentration (DC50) at BTK of 0.192 nM. Also, the IC50 in the test with HEK-293 cells (HEK293, 72 h, read-out: HEK293 (nM)) was over 10000 nM.

Turning to `Cc1cc(-c2ncnc3[nH]c4cc(N5CCC6(CC5)CCN([C@H]5C[C@H](c7ccc([C@@H]8CCC(=O)NC8=O)cc7)C5)CC6)ccc4c23)ccc1[C@@H](C)NC(=O)c1nc(C(C)(C)C)no1` [Example 110, 3-(tert-butyl)-N—((R)-1-(4-(7-(9-((1S,3r)-3-(4-((S)-2,6-dioxopiperidin-3-yl)phenyl)cyclobutyl)-3,9-diazaspiro[5.5]undecan-3-yl)-9H-pyrimido[4,5-b]indol-4-yl)-2-methylphenyl)ethyl)-1,2,4-oxadiazole-5-carboxamide], at BTK, it took 1.25 nM to reach half-maximal degradation (DC50). Besides, the IC50 in the test on HEK-293 cells (setting [1]) was 2000 nM.

Compound `Cc1cc(-c2ncnc3[nH]c4cc(N5CCN(CC6CN(c7ccc(N8CCC(=O)NC8=O)cc7)C6)CC5)ccc4c23)ccc1[C@@H](C)NC(=O)c1nc(C2(C)CC2)no1` [Example 126, (R)—N-(1-(4-(7-(4-((1-(4-(2,4-dioxotetrahydropyrimidin-1(2H)-yl)phenyl)azetidin-3-yl)methyl)piperazin-1-yl)-9H-pyrimido[4,5-b]indol-4-yl)-2-methylphenyl)ethyl)-3-(1-methylcyclopropyl)-1,2,4-oxadiazole-5-carboxamide] displayed a DC50 on BTK of 0.449 nM. The IC50 with HEK-293 cells (setting [1]) was over 10000 nM.

Compound `Cc1cc(-c2ncnc3[nH]c4cc(N5CCN(C6CN(C7CN(c8ccc9c(c8)C(=O)N(C8CCC(=O)NC8=O)C9=O)C7)C6)CC5)ccc4c23)ccc1[C@@H](C)NC(=O)c1nc(C2(C)CC2)no1` (stereo partly drawn) [Example 121, N-((1R)-1-(4-(7-(4-(1′-(2-(2,6-dioxopiperidin-3-yl)-1,3-dioxoisoindolin-5-yl)-[1,3′-biazetidin]-3-yl)piperazin-1-yl)-9H-pyrimido[4,5-b]indol-4-yl)-2-methylphenyl)ethyl)-3-(1-methylcyclopropyl)-1,2,4-oxadiazole-5-carboxamide] yielded a DC50 at BTK of 1.58 nM. In the test with HEK-293 cells (setting [1]), the IC50 was over 10000 nM.

`Cc1cc(-c2ncnc3[nH]c4cc(N5CCN(CC6CCN(c7ccc(N8CCC(=O)NC8=O)cc7)CC6)CC5)c(C)cc4c23)ccc1[C@@H](C)NC(=O)c1nc(C(C)(C)C)no1` [Example 43, (R)-3-(tert-butyl)-N-(1-(4-(7-(4-((1-(4-(2,4-dioxotetrahydropyrimidin-1(2H)-yl)phenyl)piperidin-4-yl)methyl)piperazin-1-yl)-6-methyl-9H-pyrimido[4,5-b]indol-4-yl)-2-methylphenyl)ethyl)-1,2,4-oxadiazole-5-carboxamide] gave a half-maximal degradation concentration (DC50) at BTK of 1.22 nM. In addition, the IC50 with HEK-293 cells (setting [1]) was over 10000 nM.

`COc1cc2c(cc1N1CCN(Cc3ccc4c(c3)C(C)(C)C(=O)N4C3CCC(=O)NC3=O)CC1)[nH]c1ncnc(-c3ccc([C@@H](C)NC(=O)c4nc(C5(C)CC5)no4)c(C)c3)c12` (stereo partly drawn) [Example 74, N-((1R)-1-(4-(7-(4-((1-(2,6-dioxopiperidin-3-yl)-3,3-dimethyl-2-oxoindolin-5-yl)methyl)piperazin-1-yl)-6-methoxy-9H-pyrimido[4,5-b]indol-4-yl)-2-methylphenyl)ethyl)-3-(1-methylcyclopropyl)-1,2,4-oxadiazole-5-carboxamide]: it took 2.04 nM to reach half-maximal degradation on BTK (DC50). The IC50 in the test with HEK-293 cells (setting [1]) is over 10000 nM.

`Cc1c([C@@H](C)NC(=O)c2noc(C(C)(C)C)n2)ccc(-c2ncnc3[nH]c4cc(N5CCN(CC6CC(c7ccc(C8CCC(=O)NC8=O)cc7)C6)CC5)ccc4c23)c1F` (stereo partly drawn) [Example 30, 5-(tert-butyl)-N-((1R)-1-(4-(7-(4-((3-(4-(2,6-dioxopiperidin-3-yl)phenyl)cyclobutyl)methyl)piperazin-1-yl)-9H-pyrimido[4,5-b]indol-4-yl)-3-fluoro-2-methylphenyl)ethyl)-1,2,4-oxadiazole-3-carboxamide] displayed a DC50 on BTK of 4.55 nM. Further, the IC50 with HEK-293 cells (setting [1]) is over 10000 nM.

As for `Cc1c([C@@H](C)NC(=O)c2noc(C(C)(C)C)n2)ccc(-c2ncnc3[nH]c4cc(N5CCC(CN6CCC(c7ccc(C8CCC(=O)NC8=O)cc7)CC6)CC5)ccc4c23)c1F` (stereo partly drawn) [Example 36, 5-(tert-butyl)-N-((1R)-1-(4-(7-(4-((4-(4-(2,6-dioxopiperidin-3-yl)phenyl)piperidin-1-yl)methyl)piperidin-1-yl)-9H-pyrimido[4,5-b]indol-4-yl)-3-fluoro-2-methylphenyl)ethyl)-1,2,4-oxadiazole-3-carboxamide], the DC50 at BTK is 0.804 nM. The IC50 with HEK-293 cells (setting [1]) was 3410 nM.

These data come from patent US20240366770A1, “DEGRADATION OF BRUTON'S TYROSINE KINASE (BTK) BY CONJUGATION OF BTK INHIBITORS WITH E3 LIGASE LIGAND AND METHODS OF USE” (BeiGene Switzerland GmbH, priority 2021, published 2024).
